Source: patent publication US11059825B2, “CXCR7 antagonists” (CHEMOCENTRYX, INC., priority 2012, dated 2021)

What was measured:
CXCR7 receptor [1] = biological target: T1, CXCR7 receptor (Homo sapiens (Human), UniProt P25106); assay: Serum Binding Analysis: displacement of 125I SDF-1 from CXCR7 in 100% human serum; settings: 100% human serum (human AB serum with 10 mM HEPES), MCF-7 and/or MDA-MB-435S CXCR7 transfected cells, 125I SDF-1, 3 hrs at 4° C.; read-out: Avg Ser IC50
Method: (§1) The ability of the compounds to displace the labeled chemokine from the CXCR7 receptor sites at multiple concentrations was then determined with the screening process.
(§2) ^125I-labeled SDF-1 was purchased from Perkin-Elmer Life Sciences, Inc. (Boston, Mass.). The MCF-7 (adenocarcinoma; mammary gland) cell line was obtained from the American Type Culture Collection (ATCC, Manassas, Va.) or and was cultured in DMEM (Mediatech, Herndon, Va.) supplemented with 10% fetal bovine serum (FBS) (HyClone Logan, Utah) and bovine insulin (0.01 mg/mL) (Sigma, St. Louis, Mo.) at 37° C. in a humidified incubator at a 5% CO2/air mixture. CXCR7 transfected MDA-MB-435S were produced as described below. MDA-MB-435 S human breast cancer line, was purchased from ATCC, and cultured in DMEM/10% FBS medium. The complete coding sequence of the gene encoding CXCR7 (a.k.a. CCXCKR2, hRDC1), was isolated from MCF-7 cells using MACs mRNA isolation kit (Miltenyi Biotec, Auburn, Calif.). DNA contamination was removed by DNase digestion via RNeasy columns (Qiagen, Inc., Valencia, Calif.) and cDNA was generated using GeneAmp RNA PCR Core Kit (Applied Biosystems, Foster City, Calif.). PCR of cDNA samples was performed using Taq PCR Master Mix kit (Qiagen, Inc.) and hRDC1 primers harboring 5′ and 3′ Not I sites (hRDC1F 5′ […]-3′, hRDC1R 5′-[…]-3′) Not I digested PCR product was ligated into Not I digested pcDNA3.1 (+)(Invitrogen, Carlsbad, Calif.) and screened for orientation and sequence confirmed. Plasmid DNA was then isolated from overnight bacterial cultures by Maxiprep (Qiagen, Inc.). Plasmid DNA (10 μg) was added to MDA-MB-435s cells and cells were electroporated (0.22 kV, 960 uF) via Gene Pulser (Biorad laboratories, Hercules, Calif.). 48 hr post-electroporation, cells were transferred to selection medium (600 ug/ml G418).
In order to more properly assess the binding efficacy of the compounds, radioligand binding assays were carried out in the presence of 100% human serum to more accurately reflect the in vivo environment. […] Target compounds were tested to determine their ability to bind with CXCR7 sites on MCF-7 and/or MDA-MB-435S CXCR7 transfected cells. Efficiency-maximized radioligand binding using filtration protocols as described in Dairaghi D J, et al., HHV8-encoded vMIP-I selectively engages chemokine receptor CCR5. Agonist and antagonist profiles of viral chemokines., J. Biol. Chem. 1999 Jul. 30; 274(31): 21569-74 and Gosling J, et al., Cutting edge: identification of a novel chemokine receptor that binds dendritic cell- and T cell-active chemokines including ELC, SLC, and TECK., J. Immunol. 2000 Mar. 15; 164(6):2851-6 was used.
In these assays, MCF-7 and/or MDA-MB-435S cells were interrogated with the target compounds and the ability of these compounds to displace 125 I radiolabeled SDF-1 was assessed using the protocol described in Dairaghi and Gosling. The target compounds were added to the plate to the indicated concentration followed by addition of cells and radiolabeled chemokine (125I SDF-1), both in the following medium (human AB serum with 10 mM HEPES added to stabilize at pH 7.4). All assays were then incubated for 3 hrs at 4° C. with gentle agitation. Following incubation in all binding assays, reactions were aspirated onto PEI-treated GF/B glass filters (Packard) using a cell harvester (Packard) and washed twice (25 mM HEPES, 500 mM NaCl, 1 mM CaCl2, 5 mM MgCl2, adjusted to pH 7.1). Scintillant (MicroScint 10, Packard) was added to the wells, and the filters were counted in a Packard Topcount scintillation counter. Data were analyzed and plotted using GraphPad Prism (GraphPad Software).

CXCR7 receptor [2] = biological target: T1, CXCR7 receptor; assay: Buffer Binding Analysis: displacement of 125I-labeled SDF-1 from CXCR7 on cells; settings: buffer binding medium, MCF-7 and/or MDA-MB-435S CXCR7 transfected cells, 125I SDF-1, 3 hr at 4° C.; read-out: Avg Bind IC50
Method: as §1, §2
Target compounds can be tested to determine their ability to bind with CXCR7 sites on MCF-7 and/or MDA-MB-435S CXCR7 transfected cells. Efficiency-maximized radioligand binding using filtration protocols as described in Dairaghi D J, et al., HHV8-encoded vMIP-1 selectively engages chemokine receptor CCR5. Agonist and antagonist profiles of viral chemokines., J. Biol. Chem. 1999 Jul. […]
In these assays, MCF-7 and/or MDA-MB-435S cells are interrogated with the target compounds and the ability of these compounds to displace ^125I radiolabeled SDF-1 assessed using the protocol described in Dairaghi and Gosling. […] Scintillant (MicroScint 10, Packard) is added to the wells, and the filters counted in a Packard Topcount scintillation counter. Data are analyzed and plotted using GraphPad Prism (GraphPad Software).

[3] = system: C6 cells implanted into the brains of Sprague-Dawley rats; assay: Rat C6 model of glioblastoma; type: in vivo; settings: tumors irradiated after 7 days with 5-20 Gy, then treated with compound
Method: Many tumor models in animals are known in the art, and may be employed to evaluate a compound of instance. For instance, in a rat C6 model of glioblastoma, 1×10^6 C6 cells were implanted by stereotactic injection into the into the brains of Sprague-Dawley rats. After 7 days tumors were irradiated with between 5-20 Gy of radiation. Following irradiation rats were treated (eg via subcutaneous, intraperitoneal, oral, parenteral or other route) with compound or vehicle control and tumors are allowed to progress. Animals were followed until death or loss of >20% weight, or removed for tumor induced neurodeficits eg seizures and immobility in according with appropriate regulations and standards.

T1 sequence (P25106 whole entry): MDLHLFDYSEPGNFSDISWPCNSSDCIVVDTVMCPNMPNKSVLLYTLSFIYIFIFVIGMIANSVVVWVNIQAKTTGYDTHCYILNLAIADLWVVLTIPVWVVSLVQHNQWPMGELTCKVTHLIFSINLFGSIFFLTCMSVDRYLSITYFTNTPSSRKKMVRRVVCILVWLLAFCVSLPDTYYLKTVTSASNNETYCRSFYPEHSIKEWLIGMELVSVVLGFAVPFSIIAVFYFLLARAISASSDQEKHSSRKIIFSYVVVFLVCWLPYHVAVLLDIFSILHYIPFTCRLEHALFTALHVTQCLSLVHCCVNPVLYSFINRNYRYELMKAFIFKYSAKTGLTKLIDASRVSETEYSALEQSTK

SMILES | IC50 (CXCR7 receptor [1]) [nM] | IC50 (CXCR7 receptor [2]) [nM] | antitumor activity (delay in tumor growth vs vehicle treated control; Kaplan Meier analysis of survival) [3]
O=C(N[C@H]1CCN(c2nccn3cnnc23)C1)c1ncn(-c2ccccc2)n1 [Compound 1.127] | 500 to 2500 |  | 
O=C(N[C@H]1CCN(c2nccn3cccc23)C1)c1ccn(-c2ccc(F)cc2)n1 [Compound 1.128] | ≤ 500 | ≤ 500 | 
O=C(N[C@H]1CCN(c2nccn3ccnc23)C1)c1csc(N2CCC3(CC3)C(O)C2)n1 (stereo partly shown) [Compound 1.047] | 2500 to 15000 |  | 
O=C(N[C@@H]1CCN(c2nccn3ccnc23)C1)c1ncn(-c2ccccc2)n1 [Compound 1.027] | 500 to 2500 |  | 
O=C(N[C@H]1CCN(c2nccn3ccnc23)C1)c1noc(-c2ccccc2)n1 [Compound 1.121] | ≤ 500 | ≤ 500 | 
Cc1ccn2ccnc(N3CC[C@H](NC(=O)c4csc(N5CCC(O)CC5)n4)C3)c12 [Compound 1.097] | ≤ 500 | ≤ 500 | 
O=C(N[C@H]1CCN(c2nccn3ccnc23)C1)c1ncn(-c2ccc(F)cc2)n1 [Compound 1.090] |  |  | profound antitumor activity
O=C(N[C@H]1CCN(c2nccn3cccc23)C1)c1csc(N2CCC(O)CC2)n1 [Compound 1.098] | ≤ 500 | ≤ 500 | 
CN(C)c1cnc(C(=O)N[C@H]2CCN(c3nccn4cccc34)C2)nc1 [Compound 1.049] | ≤ 500 |  | 
